Measurements: patent US10934280B2, “Condensed thiophene derivatives useful as NaPi-IIb inhibitors” (Eli Lilly and Company, priority 2016, dated 2021)
Structures can show the parent of a compound that is named as a salt.

Assays:
[1] = tested on: normal rats; test: Four-day in vivo tolerability/toxicity in normal rats; details: administered in vivo to normal rats for four days
Text: Compounds of the invention, for instance Example 1, show advantageous pharmacological properties, such as potency, in vivo distribution, in vivo efficacy, and favorable lack of toxicity in preclinical testing.

[2] = target: T1, NaPi-IIb (Mus musculus, UniProt Q9DBP0); test: Inhibition of NaPi-IIb in vivo: plasma counts after oral radioactive phosphate in mice
T1 construct: from tissue; host or cells: living C57Bl6 mice (gastrointestinal tract)
T1 sequence (Q9DBP0 1-697): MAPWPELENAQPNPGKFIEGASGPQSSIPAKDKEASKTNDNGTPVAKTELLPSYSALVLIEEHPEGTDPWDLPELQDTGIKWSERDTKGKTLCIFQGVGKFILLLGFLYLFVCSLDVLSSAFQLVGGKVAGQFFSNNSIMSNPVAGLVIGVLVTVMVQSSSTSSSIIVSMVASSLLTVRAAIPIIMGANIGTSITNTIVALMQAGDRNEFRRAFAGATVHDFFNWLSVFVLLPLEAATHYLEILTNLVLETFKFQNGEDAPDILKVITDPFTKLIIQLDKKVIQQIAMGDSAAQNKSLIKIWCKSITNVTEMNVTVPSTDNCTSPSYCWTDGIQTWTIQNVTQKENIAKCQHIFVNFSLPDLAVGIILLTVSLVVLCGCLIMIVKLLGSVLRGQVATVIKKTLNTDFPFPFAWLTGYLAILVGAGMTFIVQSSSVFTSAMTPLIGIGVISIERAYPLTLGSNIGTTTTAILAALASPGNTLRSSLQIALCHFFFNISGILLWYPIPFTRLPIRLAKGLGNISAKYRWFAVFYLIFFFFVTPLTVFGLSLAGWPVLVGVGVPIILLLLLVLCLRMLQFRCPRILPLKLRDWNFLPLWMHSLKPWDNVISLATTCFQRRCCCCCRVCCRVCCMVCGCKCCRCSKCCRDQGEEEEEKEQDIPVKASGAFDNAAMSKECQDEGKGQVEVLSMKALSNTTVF
Procedure: For test article and vehicle control preparation, add vehicle, 20% hydroxypropyl-beta-cyclodextrin (HPBCD) in water, to the test article. Sonicate to reduce particle size in an ultrasonic water bath as needed. If necessary, use a polytron to break down any visible particles in test article solution. The pH of the vehicle control is adjusted to 8.0 to 8.5 with 1N NaOH.
Radioactive phosphate preparation: Prepare a 16.25 mM Na2HPO4 solution using 0.9% saline as the vehicle. Mix until a clear solution is formed. Adjust pH to approximately 7.4. Filter using a sterile 0.2 μm polyethersulfone membrane. For the final preparation of the radioactive phosphate dosing solution, add 0.5 μl of stock H3^3PO4 per 1 mL of Na2HPO4. Mix thoroughly then sterile filter the H3^33PO4+Na2HPO4 solution using a 0.2 μm polyethersulfone membrane prior to dosing. Measure the radioactivity of each sample with the scintillation counter. If the DPMs are between 100,000 and 150,000 proceed with dosing.
In-vivo protocol: Male C57B16 male mice at the age of about 8-9 wks old are fasted for 16 hrs the day before the study. They are assigned to treatment groups based on body weight on the day of study. Mice are dosed orally with either the test article, prepared as described above, or vehicle control at a 10 mis/kg dose volume. Fifteen minutes later, the radioactive phosphate dosing solution is given by oral gavage. Fifteen minutes later, blood is collected by orbital bleed. Plasma is prepared and 50 μl of EDTA plasma from each mouse is mixed with 10 ml of scintillation fluid and the counts determined by scintillation counting. The effect of the test article is determined by comparing the counts in the plasma from the test article treated animals to counts in the plasma of the vehicle control treated animals [Percent Inhibition=[…]]. Percent inhibition is measured at 30 minutes post administration of the compound or vehicle, and at 15 minutes post administration of the labelled phosphate. Percent Inhibition for indicated Examples are illustrated in Table 3 below.
Alternative vehicles, for example poly-1-vinylpyrrolidone-co-vinyl acetate (PVP-VA), at varying concentrations, may be used. Example 1 can be assayed in PVP-VA, and for this study the compound is formulated as described in the solid dispersion preparation of Example 1, followed by dissolving in water then dosing by oral gavage. The vehicle control is water with varying concentrations of PVP-VA, matching the concentration found in the highest dose of Example 1, the lowest dose of Example 1, and an intermediate dose of Example 1. No effect of varying PVP-VA on the uptake of radiolabeled phosphate is observed over several studies, and thus all the vehicles are averaged to calculate percent inhibition.

[3] = tested on: gastric emptying; test: Effect on gastric emptying in vivo (radiolabeled phosphate recovered from stomach); parameters: species or system mice
Procedure: The effect of a test compound on gastric emptying can be assessed by dosing the compound and radiolabeled phosphate in a manner similar to that used to assess a compound's ability to inhibit NaPi-IIb in vivo. After bleeding the mice, they were sacrificed and their stomachs harvested. The harvested stomachs are digested in 10 ml of 1N NaOH overnight, and the recovered radiolabeled phosphate DPMs determined by scintillation counting. The compound mediated effect on the rate of gastric emptying is determined by comparing the dpms in the stomach of animals treated with compound, to that of animals treated with vehicle.

[4] = target: T2, murine NaPi-IIb (Mus musculus, UniProt Q9DBP0); test: Inhibition of 33P uptake in mouse NaPi-IIb T-REX-CHO stable cell line; type: cell-based; details: 60 min at RT, geometric mean (SD), read-out: m NaPi-IIb rel IC50 (nM), (SD)
T2 construct: expressed in transfected cells
T2 sequence (Q9DBP0 1-697): T1 sequence (Q9DBP0 1-697)
Procedure: Inhibition of ^33P uptake is measured in human and mouse NaPi-IIb T-REX™-CHO stable cell lines. cDNA for NaPi-IIb is subcloned in plasmid SLC34A2 pcDNA5/TO (human) and SLC34A2 pcDNA5/TO (mouse) and stable cell lines are generated from clonal isolation for both human and mouse respectively. Mouse and human stable lines are maintained in continuous culture in growth media (Dulbecco's Modified Eagle Medium: Nutrient Mixture F-12 (3:1), 10% Heat Inactivated FBS, 1% penicillin/streptomycin/FUNGIEZONE® (HYCLONE™), 20 mM HEPES, 250 μg/mL hygromycin, 5 μg/mL blasticidin). Cells are harvested from T225 cell culture flasks (CORNING®) using 0.25% Trypsin, and plated in 96 well CYTOSTAR-T™ scintillating microplates (Amersham Systems) at 40,000 cells/well in 100 μL of growth media plus 100 ng/mL of tetracycline. Cell plates are incubated overnight at 37° C. and 5% C02. The next day, compounds are serially diluted using one to three dilutions in 100% DMSO. Cell plates may remain in the incubator until ready to be assayed. A cell plate is removed from the incubator and media removed. Cells are washed 3 times with 200 μL assay buffer (137 mM NaCl, 5.4 mM KCl, 2.8 mM CaCl2), 1.2 mM MgSO4, and 14 mM Tris-HCl buffer, pH˜7.5), removing buffer in between washes. Serially diluted compounds in DMSO are further diluted 50 fold in assay buffer and 50 μL added to the CYTOSTAR-T™ assay plate, immediately followed by the addition of 50 μL of ^33P solution (PERKIN-ELMER®, Walton, Mass.; 0.05 μCi/50 μL). CYTOSTAR-T™ assay plates are covered with foil to protect from light and incubated for 60 min at RT. After the 60 min incubation, 100 μL of a stop solution (assay buffer+400 μM Phloretin) is added to the assay plate to stop ^33P uptake. The plate is immediately read on a Wallac MICROBETA® Trilux liquid scintillation counter and luminometer after stop solution is added with 1 minute count per well. Each plate may be processed separately and staggered in time so there may be no delay in counting after stop solution is added. Percent inhibition at all concentrations tested (final assay concentrations 100-0.005 μM) are calculated relative to 1% DMSO (minimum effect), and the effect of 100 μM of a fully efficacious NaPi-IIb inhibitor (maximum effect). IC50 values were calculated using a 4 parameter logistic curve fitting equation. The numbers presented are the geometric means with standard deviation (SD) calculated where n is the number of runs. Thus. Table 1 describes the relative IC50 values for Examples 1-28 against human NaPi-IIb and murine NaPi-IIb, respectively.

[5] = 5 mg/kg oral, 20% HPBCD vehicle, fasted male mice, 30 min post compound, 15 min post labelled phosphate

CC1(C)CN(C(=O)NCCCCO)CCN1Cc1cccc(C(=O)Nc2sc3c(c2C(=O)Nc2cc(F)c(CCc4ccc(C(=O)O)cc4)c(F)c2)CCCC3)c1 [Example 1, 4-[2-[2,6-difluoro-4-[[2-[[3-[[4-(4-hydroxybutylcarbamoyl)-2,2-dimethyl-piperazin-1-yl]methyl]benzoyl]amino]-4,5,6,7-tetrahydrobenzothiophene-3-carbonyl]amino]phenyl]ethyl]benzoic Acid]
tolerability [1]: generally well tolerated
toxicity [1]: advantageous lack of toxicity
Percent Inhibition ([2]; 0.03 mg/kg oral gavage, PVP-VA solid dispersion formulation in water, mice): 0.75%
Percent Inhibition ([2]; 0.1 mg/kg oral gavage, PVP-VA solid dispersion formulation in water, mice): 30.61%
Percent Inhibition ([2]; 0.3 mg/kg oral gavage, PVP-VA solid dispersion formulation in water, mice): 51.21%
Percent Inhibition ([2]; 1 mg/kg oral gavage, PVP-VA solid dispersion formulation in water, mice): 66.90%
Percent Inhibition ([2]; 3 mg/kg oral gavage, PVP-VA solid dispersion formulation in water, mice): 68.71%
Percent Inhibition ([2]; 10 mg/kg oral gavage, PVP-VA solid dispersion formulation in water, mice): 75.64%
Percent Inhibition ([2]; 30 mg/kg oral gavage, PVP-VA solid dispersion formulation in water, mice): 75.83%
margin of NaPi-IIb inhibition with respect to inhibition of in vivo gastric emptying [3]: surprisingly advantageous margin

COCCN(CCOC)S(=O)(=O)N1CCN(Cc2cccc(C(=O)Nc3sc4c(c3C(=O)Nc3cc(F)c(CCc5ccc(C(=O)O)cc5)c(F)c3)CCCC4)c2)C(C)(C)C1 [Example 3, 4-[2-[4-[[2-[[3-[[4-[bis(2-methoxyethyl)sulfamoyl]-2,2-dimethyl-piperazin-1-yl]methyl]benzoyl]amino]-4,5,6,7-tetrahydrobenzothiophene-3-carbonyl]amino]-2,6-difluoro-phenyl]ethyl]benzoic Acid]
IC50 [4]: 40.9 nM

CC1(C)CN(CCCC(=O)O)CCN1Cc1cccc(C(=O)Nc2sc3c(c2C(=O)Nc2cc(F)c(CCc4ccc(C(=O)O)cc4)c(F)c2)CCCC3)c1 [Example 4, 4-[2-[4-[[2-[[3-[[4-(3-carboxypropyl)-2,2-dimethyl-piperazin-1-yl]methyl]benzoyl]amino]-4,5,6,7-tetrahydrobenzothiophene-3-carbonyl]amino]-2,6-difluoro-phenyl]ethyl]benzoic Acid]
Percent Inhibition [2, 5]: 52%

CC1(C)CN(C(=O)CN)CCN1Cc1cccc(C(=O)Nc2sc3c(c2C(=O)Nc2cc(F)c(CCc4ccc(C(=O)O)cc4)c(F)c2)CCCC3)c1 [Example 6, 4-[2-[4-[[2-[[3-[[4-(2-aminoacetyl)-2,2-dimethyl-piperazin-1-yl]methyl]benzoyl]amino]-4,5,6,7-tetrahydrobenzothiophene-3-carbonyl]amino]-2,6-difluoro-phenyl]ethyl]benzoic Acid]
Percent Inhibition [2, 5]: 62%

COCCCCNC(=O)N1CCN(Cc2cccc(C(=O)Nc3sc4c(c3C(=O)Nc3cc(F)c(CCc5ccc(C(=O)O)cc5)c(F)c3)CCCC4)c2)C(C)(C)C1 [Example 7, 4-[2-[2,6-difluoro-4-[[2-[[3-[[4-(4-methoxybutylcarbamoyl)-2,2-dimethyl-piperazin-1-yl]methyl]benzoyl]amino]-4,5,6,7-tetrahydrobenzothiophene-3-carbonyl]amino]phenyl]ethyl]benzoic Acid]
IC50 [4]: 8.56 nM

CC1(C)CN(C(=O)CCC(=O)O)CCN1Cc1cccc(C(=O)Nc2sc3c(c2C(=O)Nc2cc(F)c(CCc4ccc(C(N)=O)cc4)c(F)c2)CCCC3)c1 [Example 8, 4-[4-[[3-[[3-[[4-[2-(4-carbamoylphenyl)ethyl]-3,5-difluoro-phenyl]carbamoyl]-4,5,6,7-tetrahydrobenzothiophen-2-yl]carbamoyl]phenyl]methyl]-3,3-dimethyl-piperazin-1-yl]-4-oxo-butanoic Acid]
Percent Inhibition [2, 5]: 60%

CNC(=O)N1C2CCC1CN(Cc1cccc(C(=O)Nc3sc4ccccc4c3C(=O)Nc3cc(F)c(CCc4ccc(C(=O)O)cc4)c(F)c3)c1)C2 [Example 13, 4-[2-[2,6-difluoro-4-[[2-[[3-[[8-(methylcarbamoyl)-3,8-diazabicyclo[3.2.1]octan-3-yl]methyl]benzoyl]amino]benzothiophene-3-carbonyl]amino]phenyl]ethyl]benzoic Acid, Formic Acid Salt]
IC50 [4]: 9 nM
